Measured values: paper PMC4546618, “Casitas B-Lineage Lymphoma RING Domain Inhibitors Protect Mice against High-Fat Diet-Induced Obesity and Insulin Resistance” (PLoS ONE, 2015)
Where two headings read alike, the source gives them in different places. Where a SMILES comes first, the peptide text is derived from it. [ ]: non-standard residue; d: D form. Pro(trans-4-F) = O=C(O)[C@@H]1C[C@@H](F)CN1; Phe(3-F) = N[C@@H](Cc1cccc(F)c1)C(=O)O; Thz = O=C(O)[C@@H]1CSCN1

What was measured:
Cbl (RING) protein = target: T1, Cbl (RING) protein (Homo sapiens, UniProt P22681); test: Fluorescence polarization (FP) assay, competition with FITC-βA-PFKPP-NH2 probe; type: binding; conditions: probe FITC-βA-PFKPP-NH2 100 nmol/L, Cbl (RING) protein 3 μmol/L, PBS pH 7.4
T1 construct: including the linker and RING domain (codon 358–457); GST (Glutathione S-Transferase); made in house
T1 sequence (P22681 358-457): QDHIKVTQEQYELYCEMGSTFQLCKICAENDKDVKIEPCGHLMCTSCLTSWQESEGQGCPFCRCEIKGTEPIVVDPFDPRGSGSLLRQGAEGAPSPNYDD
Experimental: Peptides and peptide mimetics were purchased from MitenChem (China) with a purity ≥ 98%. Concentrations values of reconstituted peptides were determined by amino acid analysis at the protein core facility (Chengdu Medical College). The recombinant Cbl protein was produced by the Chengdu Medical College Protein Core Facility and was described previously. The c-Cbl (RING) protein, including the linker and RING domain (codon 358–457), was tagged with Glutathione S-Transferase (GST) and purified with GSH-Sepharose (Shanghai Biopharma).
The FP assay was developed and validated previously. Briefly, fluorescein-labeled probe (FITC-βA-PFKPP-NH2, 100 nmol/L) and Cbl (RING) protein (3 μmol/L) were mixed and diluted to the final concentration using 0.01% Triton X-100 in PBS (pH = 7.4). Then, 19 μl of this master mix was loaded to each reaction well. The peptides or peptide mimetics were then loaded to the designated wells (1 μl, 10 μmol/L– 0.078 μmol/L, half-fold dilutions). The total fluorescence and polarization values were measured at an excitation wavelength of 485 nm and an emission wavelength of 538 nm using a ZS-2 plate reader. The data was fitted, and the ΔmP, Kd, and Ki values were estimated, using SigmaPlot 11.0.

mice = test: Acute toxicity in mice; type: in vivo; conditions: up to 15 mg/kg i.p.; for signs of acute toxicity: 72 hours; for death of animals: another 14 days following the initial examination; for H&E staining of livers, spleens and kidneys: end of experiment
Experimental: (§1) All experiments were approved by the institutional Animal Care and Use Committee (Chengdu Medical College, China). All experiments were carried out in 10-week-old male mice maintained on the C57BL/6 background. All the animals were kept on a 12-h light/dark cycle with free access to food and water.
The control group (n = 10) received vehicle only. Eight groups (10 mice each) were treated with increasing doses of either peptide 1, 3, 10, 34, 2, 60, 49, and 51 up to 15 mg/kg by i.p. Number of death, sedation, spontaneous motor activity, alertness, ptosis, dyspnea, convulsion, diarrhea, urination, postural reflex, piloerection, nociception, grooming, vocalization, rearing, climbing and aggression were observed every 12 hours for 72 h. Animals were maintained for another 14 days after the initial examination. We planned to sacrifice the animals if they show severe signs of pain or distress, a body weight loss in excess of 15% of its body weight, or a deterioration of the body condition score to BC2(-) or below. However, none of the animals qualified for the mentioned the symptoms. No animals died during the whole study. At the end of the experiment, animals were euthanized by CO2 asphyxiation followed by cervical dislocation, the livers, spleens and kidneys were collected and formalin-fixed paraffin-embedded for H&E staining.

[1] = Pharmacokinetic studies, plasma concentration after i.p. injection; type: in vivo; conditions: mice, i.p. 4 mg/kg; for Cmax: male, C57BL/6, mouse, plasma, ip, read-out: maximum concentration in plasma; for plasma concentrations compared to the parental peptides 1 and 2: at each time point after 1 hour
Experimental: as §1
Peptides (1, 3, 10, 34, 2, 60, 49, and 51) were dissolved in sterile aqueous 5% dextrose and administered to mice by i.p. injection (4 mg/kg). Blood samples were collected from the tail tip at 0, 0.5, 1, 6, 12, 18, 24 and 48 hours. Plasma samples were harvested by centrifugation and stored at -80°C until assayed. Peptide concentrations in plasma were determined by Reversed-Phase High-Performance Liquid Chromatography (RP-HPLC) with electrospray ionization mass spectrometric ([…]) detection. Samples were assayed with a series of 8 calibration standards of peptide in plasma at concentrations ranging from 50 to 6000 μg/L. Peptide concentrations were determined by comparing to the standards.

mice fed a high-fat diet [2] = test: High-fat diet-induced obesity: body weight, food intake, body composition, adipocyte volume; type: in vivo; conditions: daily i.p. 5 mg/kg; for body weight gain vs vehicle, parental and negative control peptide groups: 12-week feeding period; for percentage of perigonadal fat mass / adipocyte volume: 12 weeks; for percentage of perigonadal fat mass: NMR, vehicle 8 ± 0.8%; for adipocyte volume: adipocytes from epididymal fat pad, vehicle 510 ± 42 pL
Experimental: as §1
(§2) Animals (n = 90) were randomly assigned to one of the nine groups (Table 1). Animals were fed ad libitum with a high-fat diet (60% of caloric intake from fat (70% saturated fat), 20% from carbohydrates, and 20% from protein) before experiments and for another 12 weeks during the experiments. Food intake was measured manually on a daily basis. Eight groups of animals were treated with indicated peptides with a daily i.p. injection at 5 mg/kg and one group of animals were treated with vehicle.
Body composition was measured using nuclear magnetic resonance (NMR) technology at Chengdu College core facility. Epididymal fat pads were excised and adipocytes were isolated. Cells were then fixed using 2% OsO4 in PBS overnight at 37°C [2].

mice fed a high-fat diet [3] = test: Glucose tolerance test after 12 weeks of treatment on high-fat diet; type: in vivo; conditions: overnight fasted mice, 2 g/kg glucose i.p., after 12 weeks daily i.p. 5 mg/kg on high-fat diet
Experimental: as §1, §2
After receiving 12 weeks of treatment as described above, glucose tolerance tests were performed in overnight fasted mice. Each mouse received a 2 g/kg glucose through i.p. Blood samples were obtained from the tail tip at 0, 30, 60, 90, and 120 min. Insulin concentrations were measured using mouse insulin Elisa kits (ChrystalChem) using mouse standards. Glucose levels were measured using a glucometer (Roche).

mice fed a high-fat diet [4] = test: Indirect energy expenditure and physical activity measurement; type: in vivo; conditions: after 12 weeks daily i.p. 5 mg/kg on high-fat diet; for Oxygen consumption VO2: vehicle 4.15 ± 0.55; for Ambulatory day activity / Ambulatory night activity: photobeam break counts; for Ambulatory day activity: vehicle 2,069 ± 705; for Ambulatory night activity: vehicle 6,289 ± 1,216
Experimental: as §1, §2
After receiving 12 weeks of treatment as described above, rates of oxygen consumption (VO2) was measured using a four-chamber indirect calorimeter (Langguan, China, air flow of 0.5 l/min). A total of 2-hour measurement for each animal was conducted at 15-minuate intervals under room temperature (22°C). Ambulatory activity was estimated by counting the number of photobeam breaks in a three-sensor chamber instrument (Rui Pharm, China), and the cumulative ambulatory activity counts were recorded every hour. A total of 12 h-day time and 12 h-night activity were recorded for each animal.

Compound	Ki (Cbl (RING) protein) [nM]	signs of acute toxicity (mice)	death of animals (mice)	H&E staining of livers, spleens and kidneys (mice)	Cmax ([1]; observed in 60 min) [ng/mL]	plasma concentrations compared to the parental peptides 1 and 2 [1]	body weight gain vs vehicle, parental and negative control peptide groups (mice fed a high-fat diet [2])	percentage of perigonadal fat mass (mice fed a high-fat diet [2]) [%]	adipocyte volume (mice fed a high-fat diet [2]) [pL]	blood insulin levels compared to the vehicle group (mice fed a high-fat diet [3])	glucose tolerance compared to the vehicle group (mice fed a high-fat diet [3])	Oxygen consumption VO2 (mice fed a high-fat diet [4]) [mL/g/h]	Ambulatory day activity (mice fed a high-fat diet [4])	Ambulatory night activity (mice fed a high-fat diet [4])	Cmax ([1]; observed in 30 min) [ng/mL]
CC(=O)N1CCC[C@H]1C(=O)N[C@@H](Cc1cccc(F)c1)C(=O)N[C@@H](CCCCN)C(=O)N1CCC[C@H]1C(=O)N1CCC[C@H]1C(N)=O [Peptide 10, Ac-P(h)KPP-NH2] (Ac-P[Phe(3-F)]KPP-NH2)	1800 ± 800	did not show vital signs of acute toxicity	None of the animals died	does not show any sign of injuries	4520	greater plasma concentrations	significant differences in body weight gain	3.5 ± 0.5	295 ± 31	significant reduction in blood insulin levels	better glucose tolerance	5.92 ± 0.36	3,512 ± 923 per 12 h	12,896 ± 2,469 per 12 h	
CC(=O)N1CSC[C@H]1C(=O)N[C@@H](Cc1cccc(F)c1)C(=O)N[C@@H](CCCCN)C(=O)N1CCC[C@H]1C(=O)N1CCC[C@H]1C(N)=O [Peptide 34, Ac-(r) (h)KPP-NH2] (Ac-[Thz][Phe(3-F)]KPP-NH2)	1500 ± 400	did not show vital signs of acute toxicity	None of the animals died	does not show any sign of injuries	5020	greater plasma concentrations	significant differences in body weight gain	3.0 ± 0.9	258 ± 29	significant reduction in blood insulin levels	better glucose tolerance	5.88 ± 0.85	3,485 ± 864 per 12 h		
CC(=O)N[C@@H](CCCCN)C(=O)N1CSC[C@H]1C(=O)N[C@@H](C)C(=O)N[C@H](C(=O)N[C@@H](CCCCN)C(N)=O)[C@@H](C)O [Peptide 49, Ac-K(r)ATK-NH2] (Ac-K[Thz]ATK-NH2)	2900 ± 1200	did not show vital signs of acute toxicity	None of the animals died	does not show any sign of injuries	4680	greater plasma concentrations	significant differences in body weight gain	3.9 ± 0.4	230 ± 38	significant reduction in blood insulin levels	better glucose tolerance	6.12 ± 0.58	4,012 ±1,207 per 12 h	20,126 ± 2,914 per 12 h	
CC(=O)N[C@@H](CCCCN)C(=O)N1C[C@H](F)C[C@H]1C(=O)N[C@@H](C)C(=O)N[C@H](C(=O)N[C@@H](CCCCN)C(N)=O)[C@@H](C)O [Peptide 51, Ac-K(t)ATK-NH2] (Ac-K[Pro(trans-4-F)]ATK-NH2)	3800 ± 1100	did not show vital signs of acute toxicity	None of the animals died	does not show any sign of injuries	4620	greater plasma concentrations	significant differences in body weight gain	4.0 ± 0.8	250 ± 40	significant reduction in blood insulin levels	better glucose tolerance	5.99 ± 0.95	4,953 ± 1,014 per 12 h	19,251 ± 3,058 per 12 h	
Ac-PFKPP-NH2 [Peptide 1, Ac-PFKPP-NH2]	7200 ± 500	did not show vital signs of acute toxicity	None of the animals died	does not show any sign of injuries				6.2 ± 0.7	430 ± 35		not statistically significant	3.95 ± 0.22	2,152 ± 865 per 12 h	5,941 ± 1,355 per 12 h	3080
